One test deals with serum IL-1β. The test is described as follows: Serum IL-1β after LPS challenge in mice (ELISA). The format is in vivo, mouse. Particulars: 20 mg/kg compound, LPS 5 mg/kg, four hours. As to the method: Ten 10-week-old (20±2 gram) female BALB/c mice (Charles River Laboratories, Kingston, N.Y.) were housed in a group of 5 per cage with free access to food and water and were acclimatized for at least one week prior to experimentation. On the day of experiment, mice were weighed and randomly distributed into group of 10 animals of equal mean body weight. Mice were injected i.p. with 200 μL of formulated compound 7e or buffer alone immediately before the i.p. injection of LPS (Escherichia coli 0111:B4, 10 mg/kg or 5 mg/kg body weight) and β-D-galactosamine (50 mg/kg body weight). […] Mouse serum Il-1β and TNF-α were measured by ELISA using a “mouse IL 1β immunoassay or mouse TNF-α immunoassay” kits (R&D System Minneapolis, Minn.) following manufacturer's direction. Serum MIF concentrations in mouse serum were quantified by a sandwich ELISA (ChemiKine MIF Kit, Chemicon, San Diego, Calif.). Samples were analyzed in duplicate, and results were averaged.
An initial control experiment was conducted to determine the base line levels of endogenous MIF in the murine model system (female Balb/c mice), and further to determine the rate and extent of increase in endogenous MIF following treatment with LPS (10 mg/kg). […] The level of MIF in serum was measured by HPLC as described above at 0, 2, 5 and 6 hours following LPS/galactosamine treatment. […]

In a further test the test system is DBA/1LacJ mice. The test is described as follows: Collagen induced arthritis model, paw thickness. Type of test: in vivo, mouse. Particulars: day 74, eight doses at 0.4 mg/dose; vehicle 1.99 mm; p<0.05. On the procedure: Twenty DBA/1LacJ mice, age 10–12 weeks, were immunized on day 0 at base of the tail with bovine collagen type II (CII 100 μg) emulsified in Freunds complete adjuvant (FCA; GibcoBRL). On day 7, a second dose of collagen was administrated via the same route (emulsified in Freunds incomplete adjuvant). On Day 14 mice were injected subcutaneously with 100 mg of LPS (055:B5). On day 70 mice were injected 40 μg LPS (0111:B4) intraperitoneally. Groups were divided according paw thickness, which was measured by a caliper, after randomization, to create a balanced starting group. Compound in buffer was given to mice on days 71, 72, 73, and 74 (total eight doses at 0.4 mg/dose, approximately 20 mg/kg of body weight). Mice were then examined on day 74 by two observers for paw thickness. FIG. 14 sets forth the experimental timeline. In this experiment, subsided mice (decline of full-blown arthritis) were treated with a final i.p. injection of LPS on day 70 to stimulate cytokine production as well as acute inflammation.

Test [1] has as its target T1, MIF produced by THP-1 cells (Homo sapiens, UniProt P14174).
T1 construct: a test cell may express the MIF naturally (e.g., THP-1 cells); endogenous in cells; host or cells: THP-1 cells stimulated with LPS
T1 sequence (P14174 2-115 limits assumed): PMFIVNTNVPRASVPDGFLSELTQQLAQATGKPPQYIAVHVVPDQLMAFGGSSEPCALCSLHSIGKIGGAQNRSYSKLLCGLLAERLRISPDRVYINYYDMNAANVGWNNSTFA
The test is described as follows: ELISA of immunoreactive MIF from LPS stimulated THP-1 cells treated with compound. The format is cell-based. On the procedure:
Alternatively, ELISA may be preferred to detect and quantify the amount of MIF in cell supernatants. ELISA is preferred for detection in high throughput screening. Briefly, 96-well plates are coated with an anti-MIF antibody or anti-tag antibody, washed, and blocked with 2% BSA. Cell supernatant is then added to the wells. Following incubation and washing, a second antibody (e.g., to MIF) is added. The second antibody may be coupled to a label or detecting reagent, such as an enzyme or to biotin. Following further incubation, a developing reagent is added and the amount of MIF determined using an ELISA plate reader. The developing reagent is a substrate for the enzyme coupled to the second antibody (typically an anti-isotype antibody) or for the enzyme coupled to streptavidin. Suitable enzymes are well known in the art and include horseradish peroxidase, which acts upon a substrate (e.g., ABTS) resulting in a colorimetric reaction. It is recognized that rather than using a second antibody coupled to an enzyme, the anti-MIF antibody may be directly coupled to the horseradish peroxidase, or other equivalent detection reagent. If desired, cell supernatants may be concentrated to raise the detection level. Further, detection methods, such as ELISA and the like may be employed to monitor intracellular as well as extracellular levels of MIF. When intracellular levels are desired, a cell lysate is preferred. When extracellular levels are desired, media can be screened.
In another experiment (FIG. 2), varying concentrations of five different inhibitor analogs were added to LPS stimulated THP-1 cells and allowed to incubate overnight. The following day the amount of immunoreactive MIF detected was evaluated by ELISA. Compound 7e inhibited the ability of the antibody to recognize MIF in a dose dependent fashion with an ED50 of 2 μM, similar to the response obtained with analogs compound 7b and compound 7d.
In a further experiment (FIG. 3), the ability of compound 7e to decrease the immunoreactivity of MIF produced by THP-1 cells was determined. THP-1 cells were treated with 10 μg/ml of LPS and 10 μM of compound 7e was added at various times post-LPS stimulation and immunoreactivity monitored with an anti-MIF monoclonal. […] Thus, this experiment measures the activity of compounds or buffer alone controls on MIF detection when the compounds are initially added at various times to cell cultures and then the corresponding conditioned media samples are processed in a time dependent fashion thereafter.

Turning to `Cn1c(=O)c([N+](=O)[O-])c(N2CCN(C(=O)c3ccco3)CC2)c2ccccc21` [compound 7e], the “serum IL-1β level” value with serum IL-1β is reported as “reductions”. Besides, the “edema of the paw (paw thickness)” value in the test on DBA/1LacJ mice is 1.87 mm. Further, the “immunoreactivity of MIF with anti-MIF monoclonal” value in test [1] (10 μM added at various times post-LPS (10 μg/ml)) is given as “immunoreactivity is rapidly lost”. Besides, in test [1] (LPS stimulated THP-1 cells, incubated overnight, read-out: ED50, inhibition of the ability of the antibody to recognize MIF (ELISA)), the EC50 was 2000 nM.

Source of the values: US7084141B2, “Inhibitors of macrophase migration inhibitory factor and methods for identifying the same” (Avanir Pharmaceuticals, priority 2001, dated 2006).
